Results from patent US20170143605A1, “Compositions Comprising Osteopontin Derivatives for the Inhibition of Hair Growth” (FOLLICUM AB, priority 2014, published 2017).

What was measured:
[1] = test system: isolated human hair follicles; experiment: Masson Fontana melanin pigmentation analysis in cultured isolated human hair follicles; type: cell-based; conditions: 60 nM
Description: FIG. 3). Effect of FOL-005 on melatonin content in cultured isolated human hair follicles. The analysis was performed using Masson Fontana histochemistry and morphometric evaluation of each tissue section. Results presented as mean+/−SEM, n=26-47 hair follicles evaluated in each group. One-way ANOVA and Bonferroni's post-hoc test, *p<0.05
Masson Fontana staining: Cryosections were air dried and fixed in ethanol-acetic acid. The sections were washed in tris-buffered saline (TBS) and distilled water several times. Cryosections were treated with ammoniacal silver solution (Fluka, Seelze, Germany) for 40 min at 56° C. in the dark. After washing in distilled water, the sections were treated with 5% aqueous sodium thiosulphate (Merck, Darmstadt, Germany) for 1 min. Next, the sections were washed in running tap water for 3 min and were counter-stained in 0.5% aqueous neutral red (Sigma). After washing in distilled water, sections were dehydrated and mounted in Eukitt (O. Kindler, Freiburg, Germany).

[2] = test system: human HFs in organ-cultured full-thickness human scalp skin fragments; experiment: Hair cycle staging in organ-cultured human scalp skin fragments; type: cell-based; conditions: pooled data from six patients
Description: FIG. 13). Hair Cycle staging. Treatment of HFs with FOL-005 consistently induces anagen HFs within human scalp skin to enter catagen prematurely in all six patients tested (in each vertical bar, the top region corresponds to mid-catagen, the middle region to early catagen and the bottom region to anagen). Pooled data from 6 patients.
(§1) The following experiments were performed using human HFs in organ-cultured full-thickness human scalp skin fragments (4 mm, 6 female patients, 42-65 yrs).

[3] = test system: human HFs in organ-cultured full-thickness human scalp skin fragments; experiment: Ki67/TUNEL proliferation/apoptosis in organ-cultured human scalp skin fragments; type: cell-based; conditions: 15 nM; anagen and catagen HFs analysed
Description: FIG. 20). Ki67/TUNEL. […] Anagen & Catagen HFs analysed. Pooled data from 6 patients. Mean+/−SEM, n=48-59 HFs evaluated, Mann-Whitney test, *p<0.02. To reduce data distortion by outliers, Grubb's test was performed and the outlier value was eliminated from analysis.
as §1
Mean+/−SEM, n=48-59 HFs evaluated, Mann-Whitney test, *p<0.02. To reduce data distortion by outliers, Grubb's test was performed and the outlier value was eliminated from analysis.

[4] = test system: human HFs in organ-cultured full-thickness human scalp skin fragments; experiment: MHCII staining (indirect immunofluorescence); type: cell-based
Description: FIG. 23). MHCII staining HS 14-061 (indirect immunofluorescence. Mouse anti human Ab HLA-DP-DQ-DR from DAKO). […] These MHCII+ cells are most likely macrophages.
as §1

[5] = test system: human HFs in organ-cultured full-thickness human scalp skin fragments; experiment: CD31 staining (indirect immunofluorescence); type: cell-based
Description: FIG. 24). CD31 staining HS14-061 (indirect immunoflourescence, mouse anti-human CD31 Ab from DAKO).
as §1

[6] = test system: human HFs in organ-cultured full-thickness human scalp skin fragments; experiment: Hair follicle morphology (PAS staining); type: cell-based
Description: as §1

intact human scalp skin [7] = experiment: Masson-Fontana melanin pigmentation in intact human scalp skin; type: cell-based; conditions: injection or addition to the culture medium
Description: FIG. 8). Effect of FOL-005 on melatonin content in intact human scalp skin. The analysis was performed using Masson Fontana histochemistry and morphometric evaluation of each tissue section. Results presented as mean+/−SEM. One-way ANOVA and Bonferroni's post-hoc test, **p<0.01, *p<0.05. “D3”=3 days after treatment.
(§2) At different time points, skin specimens were embedded in O.C.T.™ Tissue-TEK (Sakura, Zoeterwoude, the Netherlands), frozen in liquid nitrogen, and 6 μm cryosections were cut. The sections were then post-fixed in acetone, air-dried and processed for haematoxylin and eosin (H&E; Sigma), Giemsa or Masson-Fontana histochemistry. Individual hair follicles were analysed with respect to their stage of cycling as described (Whiting et al. 1999), while hair follicle melanization was assessed by standard silver nitrate histochemistry (Masson-Fontana stain). Quantification of well-defined reference areas within the proximal hair matrix was performed using the Image J software (NIH).
Pigmentation changes in isolated follicles treated with exemplary polypeptide FOL-005 were assessed by Masson-Fontana histochemistry (see Whiting et al., 1999, J Investig Dermatol Symp Proc 4:282-284, the relevant disclosures of which are incorporated by reference).

intact human scalp skin [8] = experiment: Ki67/TUNEL double immunofluorescence in intact human scalp skin; type: cell-based; conditions: 60 nM; 3 days after treatment
Description: FIG. 7). Effect of FOL-005 on proliferation of Ki67 positive cells in intact human scalp skin. The concentration of FOL-005 was 60 nM, Mean+/−SEM, n=6-17 photos/punch was evaluated. “D3”=3 days after treatment.
To evaluate apoptotic and proliferating cells, double immunofluorescence was applied. Terminal dUTP nicked label-ling (ApopTag®Fluorescein in situ Apoptosis Detection Kit; Chemicon, Tenecula, Calif., USA) was used as a marker for apoptosis, and Ki67 immunoreactivity (DakoCytomation, Glostrup, Denmark) as indicator of cell proliferation, as previously described (Foitzik et. al., 2006).
Masson Fontana staining and immunohistochemistry was performed as described above.
The proliferation of Ki67 positive cells and apoptosis therein was determined as described in Whiting et al., 1999, J Investig Dermatol Symp Proc 4:282-284 (the relevant disclosures of which are incorporated by reference).
Cells were exposed to exemplary polypeptide FOL-005 at a dose of 60 nM.

[9] = test system: human male scalp skin grafted onto SCID mice; experiment: Hair growth of human male scalp skin grafted onto SCID mice; type: in vivo; conditions: human scalp grafts on SCID/beige mice; FOL-005 300 nM per graft intradermally twice a week; Minoxidil 5% topically twice a day; three months
Text: The effect of FOL-005 on hair growth of human male scalp skin grafted onto SCID mice was studied.
The aim of the study was to investigate the effect of FOL-005 on hair growth of human male scalp skin with tendency to androgenetic alopecia. In order to address this issue, fort-two female SCID/beige mice, six weeks of age, were involved in the study. Punch grafts, 3 mm^2, obtained from scalp skin of human volunteers with tendency to develop common alopecia, were transplanted onto SCID/beige mice (three grafts per mouse).
One week following transplantation, the mice were randomly divided into four treated groups as follows: • 1. Vehicle (10 mice) was injected intradermally twice a week and served as a negative control. • 2. Minoxidil (5%) (11 mice) was applied topically twice a day and served as appositive control. • 3. FOL-005 (300 nM per graft) (11 mice) was injected intradermally twice a week. • 4. Minoxidil 5%+FOL-005/Minoxidil (5%) (11 mice) was applied topically twice a day. FOL-005 (300 nM per graft) was injected intradermally twice a week. For the first 4 weeks the animals were treated with minoxidil only (in order to initiate hair growth) and then for the remaining period (2 months) FOL-005 treatment was added as injections, while minoxidil treatment was maintained as a topical application.
The number of hairs/graft was counted twice a week by two independent observers. […]

[10] = test system: human HFs in organ-cultured full-thickness human scalp skin fragments; experiment: Masson Fontana HF pigmentation in organ-cultured human scalp skin fragments; type: cell-based; conditions: at the doses tested; pooled data from 6 patients
Description: FIG. 15). Masson Fontana staining. […] Anagen & Catagen Hair Follices analysed. Pooled data from 6 patients. Mean+/−SEM, n=41-51 HFs evaluated, unpaired Student's t-test, ns
FIG. 17). Masson Fontana staining. […] Anagen HFs analysed. Pooled data from 6 patients. Mean+/−SEM, n=13-22 HFs evaluated, unpaired Student's t-test, ns
as §1

[11] = test system: isolated human hair follicles; experiment: Organ culture of isolated human hair follicles: hair cycle staging (anagen to catagen); type: cell-based
Text: Anagen VI hair follicles (see Kloepper et al., 2010, the disclosures of which are incorporated herein by reference) were micro dissected from normal human scalp skin obtained with informed patient consent from three healthy adult females undergoing routine face-lift cosmetic surgery.
Isolated hair follicles were organ-cultured for 6-10 days in insulin- and hydrocortisone-supplemented William's E medium according to Philpott et al. (see Philpott et al., 1990; Bodó et al., 2009; Gáspár et al., 2010, the disclosures of which are incorporated herein by reference).
Treatment with the exemplary polypeptide FOL-005 was initiated immediately upon culturing the hair follicles, and lasted 7 to 10 days.
At the end of organ-culture, hair follicles were embedded and processed for longitudinal cryosections (Bodó et al., 2009; Gáspár et al., 2010).

[12] = test system: human HFs in organ-cultured full-thickness human scalp skin fragments; experiment: K15 staining (indirect immunofluorescence); type: cell-based
Description: FIG. 25). […] Preservation of HF stem cell pool and thus regenerative potential by FOL-005.
as §1
K15 staining was performed using HS14-087 (indirect immunoflourescence, mouse anti-human CK15 Ab from Chemikon).

intact human scalp skin [13] = experiment: Full-thickness human scalp skin organ culture: hair cycle staging; type: cell-based
Description: Full-thickness human scalp skin organ culture was performed for six days under serum-free conditions as described in (Lu et al., 2007, the disclosures of which are incorporated herein by reference).
In brief, scalp skin of female patients was obtained from routine face-lift surgery after informed consent. Human scalp skin was washed in William's E medium (Biochrom, Cambridge, UK) supplemented with 100 IU/ml penicillin G (Sigma, St Louis, Mo., USA), 10 μg/ml streptomycin (Sigma), 0.25 μg/ml amphotericin B (Gibco, Karlsruhe, Germany) for 5 min. The out-growing hair shafts were shaved off to the level of the epidermis; 2 mm biopsies of intact scalp skin were then punched out (parallel to the direction of hair growth, i.e. at an oblique angle), using an Acu-puncher (STIEFEL, Offenbach am Main, Germany).
The punches of human scalp tissue were carefully placed into William's E medium [supplemented with 100 IU/ml penicillin/10 μg/ml streptomycin, 10 μg/ml of insulin (Sigma), 10 ng/ml of hydrocortisone (Sigma) and 2 mmol/I of I-glutamine (Invitrogen, Paisley, UK)]. The skin fragments were left to float in the medium, with the epidermis up at air/liquid interface and the dermis/subcutis down. The cultures were maintained at 37° C. in a gassed incubator with 95% air and 5% CO2. The culture medium was changed every other day.
Immediately after commencement of culturing, the skin fragments were exposed to the exemplary polypeptide FOL-005 (at a dose of 15 nM to 3 μM), which lasted for the duration of culturing.
as §2

[14] = test system: human HFs in organ-cultured full-thickness human scalp skin fragments; experiment: Toluidine blue staining for perifollicular mast cells; type: cell-based
Description: FIG. 22). Toluidine blue staining for detecting Mast cells.
as §1

[15] = test system: human HFs in organ-cultured full-thickness human scalp skin fragments; experiment: Emigration of dermal papilla cells in organ-cultured human scalp skin fragments; type: cell-based; conditions: anagen HFs only; pooled data from six patients
Description: FIG. 11). Effect of FOL-005 on emigration of Dermal Papilla (DP) cells. Only Anagen Hair follicles (HFs) analysed. Results based on pooled data from 6 patients. No significant change in the number of emigrating DP cells in HFs treated with FOL-005. Mean+/−SEM, n=18-22 HFs evaluated, Mann-Whitney test, ns
as §1

VDTYDGDISVVYGLR (FOL-005, Peptide with similarity to sub-region of osteopontin) [exemplary polypeptide of the invention, osteopontin-derived 15-mer]
melanin pigmentation [1]: significant reduction in pigmentation | HF cycling (anagen to catagen) [2]: consistently induced anagen HFs within human scalp skin to enter catagen prematurely in all six patients tested | number of apoptotic cells in HFs [3]: significant increase | number of proliferative cells in HFs [3]: No significant changes | number of immunohistologically-detectable perifollicular MHC class II+ cells [4]: No marked difference | number of CD31+ cells (endothelial cells) [5]: No marked differences | morphology of the BM (basal membrane) in HFs [6]: No observable difference | melanin pigmentation (intact human scalp skin [7]): significant reduction in pigmentation | apoptosis (proportion of TUNEL positive cells) (intact human scalp skin [8]): increased level of apoptosis | proliferation (proportion of Ki67 positive cells) (intact human scalp skin [8]): strong tendency towards reduced proliferation | number of hairs/graft [9]: 2.1±0.4 hairs/graft | HF pigmentation [10]: No significant changes | hair follicle regression (analysis of cryosections) [11]: promotes hair follicle regression | transition from anagen to catagen phase ([11]; 15 nM, 60 nM and 300 nM, treatment 7 to 10 days): induced a dose-dependent transition from anagen to catagen phase | number of K15+ cells [12]: No marked differences | human HF epithelial stem cells ([12]; K15 staining): not affected negatively | hair follicles in early catagen (intact human scalp skin [13]; addition to the culture medium): Almost all hair follicles are observed in early catagen | hair follicle regression (analysis of cryosections) (intact human scalp skin [13]; human skin pieces (Example B)): promotes hair follicle regression | catagen induction (intact human scalp skin [13]; injection into the scalp skin tissue): Catagen was also induced | transition from anagen to catagen phase (intact human scalp skin [13]; intact human scalp skin, 15 nM to 3 μM, six days culture): induced a rapid transition from anagen to catagen phase | number of histochemically-detectable perifollicular mast cells [14]: No marked difference | number of emigrating dermal papilla (DP) cells in HFs [15]: No significant effect

Nc1cc(N2CCCCC2)nc(N)[n+]1[O-] [Minoxidil, reference compound]
number of hairs/graft [9]: 8.1±0.1 hairs/graft
